Results as given in patent publication US20220009892A1, “SUBSTITUTED PYRIDINE CARBOXYLIC ACIDS, THEIR PREPARATION METHOD AND COMPOSITIONS THEREOF” (INCILIA THERAPEUTICS PRIVATE LIMITED, priority 2018, published 2022).

`COC(=O)c1cc(OC)c(OC(=O)c2cccnc2)c(OC)c1` showed a melting point of 173 to 175 °C.
